Results: ChEMBL document CHEMBL4507295 (2021)

Legend:
[1] = species on record: Rattus norvegicus; test: Potassium Channel [KA] Eurofins-Panlabs radioligand binding assay; set-up: ligand concentration 0.01 nM; settings: Compound concentration 10.0 uM
[2] = target: Melanocortin receptor 5 (Homo sapiens) (UniProt P33032); test: Inhibition of Melanocortin MC5 at 10 µM in the Eurofins-Panlabs radioligand binding assay (Eurofins_assay_251400); set-up: ligand concentration 0.035 nM; settings: Compound concentration 10.0 uM
[3] = target: Vascular endothelial growth factor receptor 1 (Homo sapiens) (UniProt P17948); test: Protein Tyrosine Kinase, FLT1 (VEGFR-1) Eurofins-Panlabs enzyme assay; settings: Compound concentration 10.0 uM
[4] = target: Cysteinyl leukotriene receptor 1 (Homo sapiens) (UniProt Q9Y271); test: Inhibition of Leukotriene, Cysteinyl CysLT1 at 10 µM in the Eurofins-Panlabs radioligand binding assay (Eurofins_assay_250460); set-up: ligand concentration 0.3 nM, non-specific ligand with concentration 0.3 µM Leukotriene D4, incubation time 30 min, incubation temperature 25 °C; settings: Compound concentration 10.0 uM
[5] = target: Prostaglandin E2 receptor EP1 subtype (Homo sapiens) (UniProt P34995); test: Prostanoid EP1 Eurofins-Panlabs radioligand binding assay; settings: Compound concentration 10.0 uM
[6] = target: hERG (KCNH2) potassium channel (Homo sapiens, UniProt Q12809); test: Potassium Channel hERG Eurofins-Panlabs radioligand binding assay; set-up: ligand concentration 0.05 nM, non-specific ligand with concentration 1 µM L-706,000, incubation time 75 min, incubation temperature 25 °C; settings: HEK-293 cells expressing recombinant human hERG, probe [S35] L-706,000 (radioligand, 0.05 nM), compound concentration 10 uM
[7] = species on record: Rattus norvegicus; test: Serotonin (5-Hydroxytryptamine) 5-HT1, Non-Selective Eurofins-Panlabs radioligand binding assay; assay type: protein assay; settings: Compound concentration 10.0 uM
[8] = species on record: Bos taurus; test: Phosphodiesterase PDE6 Eurofins-Panlabs enzyme assay; set-up: substrate with concentration [3H] cGMP + cGMP, incubation time 20 min, incubation temperature 25 °C; settings: Compound concentration 100.0 uM
[9] = target: Calcitonin receptor (Homo sapiens) (UniProt P30988); test: Inhibition of Calcitonin at 10 µM in the Eurofins-Panlabs radioligand binding assay (Eurofins_assay_213610); settings: Compound concentration 10.0 uM
[10] = target: Somatostatin receptor type 4 (Homo sapiens) (UniProt P31391); test: Somatostatin sst4 Eurofins-Panlabs radioligand binding assay; set-up: ligand concentration 0.1 nM, non-specific ligand with concentration 1 µM Somatostatin-14, incubation time 45 min, incubation temperature 25 °C; settings: Compound concentration 10.0 uM
[11] = target: T1, 5-hydroxytryptamine receptor 3A (Homo sapiens) (UniProt P46098); test: Inhibition of Serotonin (5-Hydroxytryptamine) 5-HT3 at 10 µM in the Eurofins-Panlabs radioligand binding assay (Eurofins_assay_271910); set-up: ligand concentration 0.69 nM; settings: Compound concentration 10.0 uM
T1 sequence (whole entry): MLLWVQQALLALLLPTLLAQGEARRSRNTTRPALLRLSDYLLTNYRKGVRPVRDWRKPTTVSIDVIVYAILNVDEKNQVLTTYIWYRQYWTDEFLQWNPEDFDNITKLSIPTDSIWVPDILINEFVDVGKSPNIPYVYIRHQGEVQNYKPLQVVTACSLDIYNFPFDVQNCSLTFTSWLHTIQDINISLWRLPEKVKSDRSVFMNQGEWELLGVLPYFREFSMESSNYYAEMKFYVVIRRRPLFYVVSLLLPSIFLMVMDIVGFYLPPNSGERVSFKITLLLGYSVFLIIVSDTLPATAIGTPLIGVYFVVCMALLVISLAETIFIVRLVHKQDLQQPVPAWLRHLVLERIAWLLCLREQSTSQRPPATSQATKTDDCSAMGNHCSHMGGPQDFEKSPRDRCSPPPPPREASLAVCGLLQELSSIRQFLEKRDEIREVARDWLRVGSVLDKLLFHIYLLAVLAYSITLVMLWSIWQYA

[12] = target: Galanin receptor type 2 (Homo sapiens) (UniProt O43603); test: Galanin GAL2 Eurofins-Panlabs radioligand binding assay; set-up: ligand concentration 0.02 nM; settings: Compound concentration 10.0 uM
[13] = target: Caspase-3 (Homo sapiens) (UniProt P42574); test: Peptidase, CASP3 (Caspase 3) Eurofins-Panlabs enzyme assay; settings: Compound concentration 10.0 uM
[14] = target: GABA-A receptor; anion channel (Rattus norvegicus) (UniProt O09028+P15431+P18506+P18508+P19969+P20236+P23574+P23576+P28471+P28473+P30191+P62813+P63079+P63138+Q91ZM7+Q9ES14); settings: Compound concentration 10.0 uM
[15] = target: D(2) dopamine receptor (Homo sapiens) (UniProt P14416); settings: Compound concentration 10.0 uM
[16] = target: Somatostatin receptor type 5 (Homo sapiens) (UniProt P35346); test: Somatostatin sst5 Eurofins-Panlabs radioligand binding assay; settings: Compound concentration 10.0 uM
[17] = target: Adenosine receptor A3 (Homo sapiens) (UniProt P0DMS8); settings: Compound concentration 10.0 uM
[18] = target: Tyrosine-protein phosphatase non-receptor type 2 (Homo sapiens, UniProt P17706); test: Panlabs assay; set-up: compound concentration 10 uM
[19] = target: Nociceptin receptor (Homo sapiens) (UniProt P41146); test: Orphanin ORL1 Eurofins-Panlabs radioligand binding assay; settings: Compound concentration 10.0 uM
[20] = target: Substance-K receptor (Homo sapiens) (UniProt P21452); test: Inhibition of Tachykinin NK2 at 10 µM in the Eurofins-Panlabs radioligand binding assay (Eurofins_assay_255600); set-up: ligand concentration 0.5 nM; settings: Compound concentration 10.0 uM
[21] = target: Macrophage metalloelastase (Homo sapiens) (UniProt P39900); test: Peptidase, Matrix Metalloproteinase-12 (MMP-12) Eurofins-Panlabs enzyme assay; settings: Compound concentration 10.0 uM
[22] = species on record: Rattus norvegicus; settings: Compound concentration 10.0 uM
[23] = target: Thyrotropin-releasing hormone receptor (Homo sapiens) (UniProt P34981); test: Thyrotropin Releasing Hormone (TRH) Eurofins-Panlabs radioligand binding assay; set-up: ligand concentration 3 nM; settings: Rattus norvegicus; Compound concentration 10.0 uM
[24] = target: 5-hydroxytryptamine receptor 6 (Homo sapiens) (UniProt P50406); test: Inhibition of Serotonin (5-Hydroxytryptamine) 5-HT6 at 10 µM in the Eurofins-Panlabs radioligand binding assay (Eurofins_assay_272200); settings: Compound concentration 10.0 uM
[25] = target: Vasopressin V2 receptor (Homo sapiens) (UniProt P30518); test: Vasopressin V2 Eurofins-Panlabs radioligand binding assay; set-up: ligand concentration 0.5 nM; settings: Compound concentration 10.0 uM
[26] = target: Type-1 angiotensin II receptor (Homo sapiens) (UniProt P30556); test: Angiotensin AT1 Eurofins-Panlabs radioligand binding assay; settings: Compound concentration 10.0 uM
[27] = target: Endothelin receptor type B (Homo sapiens) (UniProt P24530); settings: Compound concentration 10.0 uM
[28] = species on record: Rattus norvegicus; test: Serotonin (5-Hydroxytryptamine) 5-HT2, Non-Selective Eurofins-Panlabs radioligand binding assay; assay type: protein assay; settings: Compound concentration 10.0 uM
[29] = species on record: Homo sapiens; settings: Compound concentration 10.0 uM
[30] = target: Caspase-8 (Homo sapiens) (UniProt Q14790); test: Peptidase, CASP8 (Caspase 8) Eurofins-Panlabs enzyme assay; settings: Compound concentration 10.0 uM
[31] = species on record: Rattus norvegicus; test: Inhibition of Glutamate, NMDA, Phencyclidine at 10 µM in the Eurofins-Panlabs radioligand binding assay (Eurofins_assay_233000); assay type: protein-complex assay; settings: Compound concentration 10.0 uM
[32] = species on record: Homo sapiens; test: Estrogen ERbeta Eurofins-Panlabs radioligand binding assay; settings: Compound concentration 10.0 uM
[33] = species on record: Homo sapiens; test: Calcitonin Gene-Related Peptide CGRP1 Eurofins-Panlabs radioligand binding assay; assay type: protein-complex assay; settings: Compound concentration 10.0 uM
[34] = target: Interstitial collagenase (Homo sapiens) (UniProt P03956); test: Inhibition of Peptidase, Matrix Metalloproteinase-1 (MMP-1) at 10 µM in the Eurofins-Panlabs enzyme assay (Eurofins_assay_114110); settings: Compound concentration 10.0 uM
[35] = target: Phosphatidylinositol 4,5-bisphosphate 3-kinase catalytic subunit beta isoform (Homo sapiens) (UniProt P42338); settings: Compound concentration 1000.0 nM
[36] = target: 5-hydroxytryptamine receptor 1E (Homo sapiens) (UniProt P28566); settings: Compound concentration 10.0 uM
[37] = target: Alpha-2C adrenergic receptor (Homo sapiens) (UniProt P18825); settings: Compound concentration 10.0 uM
Alpha-2C adrenergic receptor (Homo sapiens), sequence (P18825 whole entry): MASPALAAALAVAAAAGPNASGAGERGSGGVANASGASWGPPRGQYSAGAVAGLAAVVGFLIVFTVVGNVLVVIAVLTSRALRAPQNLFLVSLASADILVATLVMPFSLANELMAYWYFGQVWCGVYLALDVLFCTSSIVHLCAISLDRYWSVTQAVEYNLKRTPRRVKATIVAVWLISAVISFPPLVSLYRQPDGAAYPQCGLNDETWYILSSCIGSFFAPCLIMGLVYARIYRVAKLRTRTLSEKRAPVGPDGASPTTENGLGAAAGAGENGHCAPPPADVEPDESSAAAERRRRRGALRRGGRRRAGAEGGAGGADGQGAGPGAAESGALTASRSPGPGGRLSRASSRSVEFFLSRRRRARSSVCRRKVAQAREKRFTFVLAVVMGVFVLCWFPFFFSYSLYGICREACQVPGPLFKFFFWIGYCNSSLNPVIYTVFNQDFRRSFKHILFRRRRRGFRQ

Galanin receptor type 2 (Homo sapiens), sequence (O43603 whole entry): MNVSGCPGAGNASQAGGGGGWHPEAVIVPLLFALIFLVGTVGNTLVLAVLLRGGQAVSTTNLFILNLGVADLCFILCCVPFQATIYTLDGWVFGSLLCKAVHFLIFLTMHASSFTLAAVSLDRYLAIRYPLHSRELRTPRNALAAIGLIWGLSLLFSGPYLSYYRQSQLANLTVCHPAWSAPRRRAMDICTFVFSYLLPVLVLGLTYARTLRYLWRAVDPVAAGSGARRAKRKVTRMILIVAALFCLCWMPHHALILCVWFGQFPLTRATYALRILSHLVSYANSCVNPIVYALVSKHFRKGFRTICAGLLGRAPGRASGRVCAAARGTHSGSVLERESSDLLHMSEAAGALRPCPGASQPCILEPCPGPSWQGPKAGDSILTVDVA
Calcitonin receptor (Homo sapiens), sequence (P30988 whole entry): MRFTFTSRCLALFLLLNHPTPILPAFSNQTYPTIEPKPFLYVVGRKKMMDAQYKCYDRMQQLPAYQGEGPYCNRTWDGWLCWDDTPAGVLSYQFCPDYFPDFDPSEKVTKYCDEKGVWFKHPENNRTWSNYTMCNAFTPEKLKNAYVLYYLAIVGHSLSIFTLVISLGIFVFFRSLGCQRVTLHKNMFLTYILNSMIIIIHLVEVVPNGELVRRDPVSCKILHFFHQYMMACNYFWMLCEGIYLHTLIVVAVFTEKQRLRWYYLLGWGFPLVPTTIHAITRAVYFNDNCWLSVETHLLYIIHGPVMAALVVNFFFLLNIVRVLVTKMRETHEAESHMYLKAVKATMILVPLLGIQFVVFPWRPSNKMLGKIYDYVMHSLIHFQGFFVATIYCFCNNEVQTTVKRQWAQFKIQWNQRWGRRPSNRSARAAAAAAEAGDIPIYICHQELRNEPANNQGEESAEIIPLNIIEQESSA
Nociceptin receptor (Homo sapiens), sequence (P41146 whole entry): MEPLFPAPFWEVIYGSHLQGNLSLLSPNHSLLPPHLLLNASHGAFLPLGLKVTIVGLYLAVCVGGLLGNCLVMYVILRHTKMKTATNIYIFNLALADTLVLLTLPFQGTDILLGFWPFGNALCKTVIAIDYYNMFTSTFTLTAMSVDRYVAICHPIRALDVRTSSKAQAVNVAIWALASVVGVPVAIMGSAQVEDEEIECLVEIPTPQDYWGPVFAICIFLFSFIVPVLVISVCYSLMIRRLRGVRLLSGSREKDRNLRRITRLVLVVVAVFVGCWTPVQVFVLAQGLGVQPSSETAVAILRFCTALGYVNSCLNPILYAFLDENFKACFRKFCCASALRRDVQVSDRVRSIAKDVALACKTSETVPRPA
Adenosine receptor A3 (Homo sapiens), sequence (P0DMS8 whole entry): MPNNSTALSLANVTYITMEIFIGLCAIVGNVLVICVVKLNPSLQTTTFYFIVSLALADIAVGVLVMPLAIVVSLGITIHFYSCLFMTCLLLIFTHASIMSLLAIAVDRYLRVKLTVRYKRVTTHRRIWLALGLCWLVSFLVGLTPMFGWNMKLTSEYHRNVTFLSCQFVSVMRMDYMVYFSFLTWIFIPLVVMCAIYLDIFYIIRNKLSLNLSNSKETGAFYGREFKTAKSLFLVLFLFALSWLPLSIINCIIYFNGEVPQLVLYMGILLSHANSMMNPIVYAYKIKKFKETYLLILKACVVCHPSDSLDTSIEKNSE
Vasopressin V2 receptor (Homo sapiens), sequence (P30518 whole entry): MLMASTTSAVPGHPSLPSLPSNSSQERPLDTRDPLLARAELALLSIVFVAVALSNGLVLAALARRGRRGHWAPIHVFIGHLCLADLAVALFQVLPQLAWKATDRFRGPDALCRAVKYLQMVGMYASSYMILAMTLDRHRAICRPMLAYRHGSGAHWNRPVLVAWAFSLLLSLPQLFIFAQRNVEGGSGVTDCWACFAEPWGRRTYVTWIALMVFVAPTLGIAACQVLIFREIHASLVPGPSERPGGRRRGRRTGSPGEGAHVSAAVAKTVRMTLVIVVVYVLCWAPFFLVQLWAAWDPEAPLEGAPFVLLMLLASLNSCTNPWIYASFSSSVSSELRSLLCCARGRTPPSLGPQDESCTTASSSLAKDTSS
5-hydroxytryptamine receptor 6 (Homo sapiens), sequence (P50406 whole entry): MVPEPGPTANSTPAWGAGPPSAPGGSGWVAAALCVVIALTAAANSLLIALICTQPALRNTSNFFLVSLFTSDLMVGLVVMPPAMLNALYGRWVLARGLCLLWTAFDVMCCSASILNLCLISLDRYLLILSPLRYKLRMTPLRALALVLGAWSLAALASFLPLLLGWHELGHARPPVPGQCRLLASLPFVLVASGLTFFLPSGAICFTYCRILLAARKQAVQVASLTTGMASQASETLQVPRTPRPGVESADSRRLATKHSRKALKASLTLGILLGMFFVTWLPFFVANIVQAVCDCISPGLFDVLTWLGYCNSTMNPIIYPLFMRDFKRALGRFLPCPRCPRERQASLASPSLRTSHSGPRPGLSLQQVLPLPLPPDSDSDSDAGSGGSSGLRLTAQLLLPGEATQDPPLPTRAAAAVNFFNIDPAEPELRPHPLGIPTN
Somatostatin receptor type 5 (Homo sapiens), sequence (P35346 whole entry): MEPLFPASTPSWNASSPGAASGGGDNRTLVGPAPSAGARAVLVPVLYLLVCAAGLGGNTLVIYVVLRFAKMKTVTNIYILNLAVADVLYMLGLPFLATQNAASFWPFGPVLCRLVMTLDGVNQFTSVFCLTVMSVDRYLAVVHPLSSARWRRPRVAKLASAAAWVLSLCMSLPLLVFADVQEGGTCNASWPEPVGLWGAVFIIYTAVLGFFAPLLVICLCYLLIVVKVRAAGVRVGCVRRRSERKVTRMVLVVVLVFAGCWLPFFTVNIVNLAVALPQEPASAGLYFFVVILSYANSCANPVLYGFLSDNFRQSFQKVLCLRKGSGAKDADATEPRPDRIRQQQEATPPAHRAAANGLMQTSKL
Endothelin receptor type B (Homo sapiens), sequence (P24530 whole entry): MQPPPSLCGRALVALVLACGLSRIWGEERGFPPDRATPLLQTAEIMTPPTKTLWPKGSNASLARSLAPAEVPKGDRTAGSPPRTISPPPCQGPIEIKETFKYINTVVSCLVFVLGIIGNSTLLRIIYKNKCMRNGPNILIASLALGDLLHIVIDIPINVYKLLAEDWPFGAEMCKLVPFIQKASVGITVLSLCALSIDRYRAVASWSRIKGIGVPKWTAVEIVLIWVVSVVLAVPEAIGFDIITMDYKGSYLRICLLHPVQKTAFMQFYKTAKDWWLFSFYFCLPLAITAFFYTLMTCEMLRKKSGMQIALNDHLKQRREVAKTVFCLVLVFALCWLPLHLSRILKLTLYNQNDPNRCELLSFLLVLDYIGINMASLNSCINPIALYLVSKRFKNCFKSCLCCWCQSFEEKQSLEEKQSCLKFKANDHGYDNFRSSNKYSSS
Tyrosine-protein phosphatase non-receptor type 2, sequence (P17706 whole entry): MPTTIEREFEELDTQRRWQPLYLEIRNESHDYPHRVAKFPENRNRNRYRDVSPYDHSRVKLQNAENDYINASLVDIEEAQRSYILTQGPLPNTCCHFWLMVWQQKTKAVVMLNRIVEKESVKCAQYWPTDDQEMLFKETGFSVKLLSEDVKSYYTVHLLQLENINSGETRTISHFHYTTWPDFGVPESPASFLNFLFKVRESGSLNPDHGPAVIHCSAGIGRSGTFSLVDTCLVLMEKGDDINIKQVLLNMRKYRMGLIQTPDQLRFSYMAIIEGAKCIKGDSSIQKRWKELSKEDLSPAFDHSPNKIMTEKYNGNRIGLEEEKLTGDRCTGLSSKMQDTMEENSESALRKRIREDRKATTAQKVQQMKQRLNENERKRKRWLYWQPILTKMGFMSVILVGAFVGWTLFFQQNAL
Caspase-8 (Homo sapiens), sequence (Q14790 217-374 limits assumed): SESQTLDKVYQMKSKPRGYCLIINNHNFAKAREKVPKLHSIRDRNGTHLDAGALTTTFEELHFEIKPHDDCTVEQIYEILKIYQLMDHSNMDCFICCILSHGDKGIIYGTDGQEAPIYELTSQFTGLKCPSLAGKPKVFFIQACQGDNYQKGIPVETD
Caspase-8 (Homo sapiens), sequence (Q14790 385-479 limits assumed): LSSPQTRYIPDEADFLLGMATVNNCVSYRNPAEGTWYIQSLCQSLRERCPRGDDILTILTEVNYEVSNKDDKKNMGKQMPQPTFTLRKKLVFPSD
Thyrotropin-releasing hormone receptor (Homo sapiens), sequence (P34981 whole entry): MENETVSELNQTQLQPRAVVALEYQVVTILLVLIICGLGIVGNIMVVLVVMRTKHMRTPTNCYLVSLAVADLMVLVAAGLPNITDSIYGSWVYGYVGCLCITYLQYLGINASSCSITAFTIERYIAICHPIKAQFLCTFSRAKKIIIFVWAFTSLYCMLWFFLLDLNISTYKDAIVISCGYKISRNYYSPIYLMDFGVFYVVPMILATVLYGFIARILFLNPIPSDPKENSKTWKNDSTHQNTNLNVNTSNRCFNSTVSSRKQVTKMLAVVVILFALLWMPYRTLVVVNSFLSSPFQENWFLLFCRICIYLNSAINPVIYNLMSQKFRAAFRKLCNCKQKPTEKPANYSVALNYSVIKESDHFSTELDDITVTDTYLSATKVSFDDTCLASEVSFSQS

SMILES: N#CC1(c2ccccn2)CCN(Cc2cc(C(=O)O)c(=O)n3ccccc23)CC1 [MSD-M1PAM]
- inhibition [1]: 17%
- inhibition [2]: 1%
- inhibition [3]: 0%
- inhibition [4]: -5%
- inhibition [5]: 14%
- inhibition at 75 min, 10 µM [6]: 5% (not active)
- inhibition [7]: 5%
- inhibition [8]: 5%
- inhibition [9]: -5%
- inhibition [10]: -1%
- inhibition [11]: 17%
- inhibition [12]: 4%
- inhibition [13]: 6%
- inhibition [14]: 18%
- inhibition [15]: -9%
- inhibition [16]: -5%
- inhibition [17]: -3%
- IC50 [18]: 10 µM (not active)
- inhibition [19]: 14%
- inhibition [20]: 9%
- inhibition [21]: 12%
- inhibition [22]: -4%
- inhibition [23]: 13%
- inhibition [24]: 11%
- inhibition [25]: -2%
- inhibition [26]: -8%
- inhibition [27]: -10%
- inhibition [28]: 0%
- inhibition [29]: 0%
- inhibition [30]: 9%
- inhibition [31]: 11%
- inhibition [32]: 8%
- inhibition [33]: -6%
- inhibition [34]: 15%

SMILES: N#CC1(c2ccccn2)CCN(Cc2cc(C(=O)N3CCCC3)c(=O)n3ccccc23)CC1
- residual activity [35]: 100%
- inhibition [36]: -3.26%
- inhibition [37]: 1.13%
